The test relates to GABA-A receptors. As to the kind of experiment: Displacement of [3H] muscimol from GABA-A receptors. The class given is binding. The method, then: Muscimol is the principal psychoactive constituent of Amanita muscaria and related species of mushroom.
These tests were performed using the procedure described by Tomasz Plech et. al., Studies on anticonvulsant activity of 4-alkyl-1,2,4-triazole-3-thiones and their effect on GABAergic system; European J. of Medicinal Chem. 2014, 86, 690-699.

With `CC/C=C\C/C=C\C/C=C\C/C=C\C/C=C\C/C=C\CCC(CN)CC(=O)O` (centres unmarked) [Example 1, 3-Aminomethyl-tetracosa-6,9,12,15,18,21-hexaenoic Acid], the “% of [3H]-MUSCIMOL inhibition” value by setting is: (LOG OF MOLAR CONC. −4) 10%; (LOG OF MOLAR CONC. −5) 0%.

For `CC/C=C\C/C=C\C/C=C\C/C=C\C/C=C\CCCC(CN)CC(=O)O` (centres unmarked) [Example 2, 3-Aminomethyl-docosa-7,10,13,16,19-pentaenoic Acid], the “% of [3H]-MUSCIMOL inhibition” value (LOG OF MOLAR CONC. −4) turned out to be 15% and the “% of [3H]-MUSCIMOL inhibition” value (LOG OF MOLAR CONC. −5) turned out to be 10%.

For `CC/C=C\C/C=C\C/C=C\CCCCCCCC(CN)CC(=O)O` (centres unmarked) [Example 3, 3-Aminomethyl-eicosa-11,14,17-trienoic Acid], the “% of [3H]-MUSCIMOL inhibition” value (LOG OF MOLAR CONC. −4) amounted to 8% and the “% of [3H]-MUSCIMOL inhibition” value (LOG OF MOLAR CONC. −5) turned out to be 0%.

In the case of `CC(C)C[C@H](CN)CC(=O)O` [Pregabalin, S-isobutylgaba, reference compound], the “% of [3H]-MUSCIMOL inhibition” value runs as follows: (LOG OF MOLAR CONC. −4) 12%; (LOG OF MOLAR CONC. −5) 0%.

Source of the values: patent US9688613B2 (Jiva Pharma, Inc., priority 2015, dated 2017).
